Laboratory results reported in US8088763B2 (priority 2004, dated 2012).

Tests used:
5HT-uptake = molecular target: T1, 5HT-uptake (Rattus norvegicus, UniProt P31652); assay: biochemical; conditions: for inhibition at 10 µM: read-out: 5HT-uptake [10 μM], % inhibition
T1 construct: synaptosomes were freshly isolated from areas of rats' brains

NA-uptake = NA-uptake (Rattus norvegicus, UniProt Q63380); assay: biochemical; conditions: for inhibition at 10 µM: read-out: NA-uptake [10 μM], % inhibition
NA-uptake, sequence (Q63380 1-617): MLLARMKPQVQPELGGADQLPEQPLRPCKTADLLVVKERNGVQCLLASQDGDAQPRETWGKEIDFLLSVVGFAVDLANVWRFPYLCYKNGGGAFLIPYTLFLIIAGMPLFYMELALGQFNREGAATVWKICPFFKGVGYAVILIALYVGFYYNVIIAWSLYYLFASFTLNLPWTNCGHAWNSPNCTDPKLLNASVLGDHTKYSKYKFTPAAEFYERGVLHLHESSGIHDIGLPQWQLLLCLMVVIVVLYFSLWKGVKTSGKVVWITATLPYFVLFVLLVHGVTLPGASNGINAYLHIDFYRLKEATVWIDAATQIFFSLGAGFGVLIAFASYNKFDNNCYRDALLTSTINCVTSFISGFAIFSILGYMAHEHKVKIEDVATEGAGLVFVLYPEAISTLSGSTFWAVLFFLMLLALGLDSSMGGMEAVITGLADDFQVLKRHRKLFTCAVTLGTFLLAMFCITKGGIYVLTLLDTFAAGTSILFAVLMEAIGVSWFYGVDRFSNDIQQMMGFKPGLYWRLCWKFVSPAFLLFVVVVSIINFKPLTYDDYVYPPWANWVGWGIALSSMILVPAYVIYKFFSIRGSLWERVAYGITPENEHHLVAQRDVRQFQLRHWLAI

T1 sequence (P31652 whole entry): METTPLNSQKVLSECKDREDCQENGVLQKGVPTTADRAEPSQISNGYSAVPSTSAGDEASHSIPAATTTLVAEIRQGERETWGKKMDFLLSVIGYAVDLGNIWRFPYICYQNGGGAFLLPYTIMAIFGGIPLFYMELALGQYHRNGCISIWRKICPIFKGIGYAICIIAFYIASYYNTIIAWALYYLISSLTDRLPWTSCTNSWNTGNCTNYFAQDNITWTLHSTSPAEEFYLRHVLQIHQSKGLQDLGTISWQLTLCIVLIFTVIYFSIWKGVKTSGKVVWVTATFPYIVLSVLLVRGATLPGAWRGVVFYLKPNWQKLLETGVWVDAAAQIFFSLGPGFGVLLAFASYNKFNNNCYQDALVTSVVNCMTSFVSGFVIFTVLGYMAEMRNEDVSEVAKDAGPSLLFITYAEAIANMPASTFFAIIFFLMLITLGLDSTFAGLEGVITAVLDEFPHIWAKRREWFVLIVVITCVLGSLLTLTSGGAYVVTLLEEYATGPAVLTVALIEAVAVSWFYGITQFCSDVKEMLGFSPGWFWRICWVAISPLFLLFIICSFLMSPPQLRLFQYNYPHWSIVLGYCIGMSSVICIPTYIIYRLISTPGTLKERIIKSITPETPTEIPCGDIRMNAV

SMILES	5HT-uptake [10 μM], % inhibition (5HT-uptake) [%]	NA-uptake [10 μM], % inhibition (NA-uptake) [%]	inhibition at 10 µM (5HT-uptake) [%]	inhibition at 10 µM (NA-uptake) [%]
CN(C)C1(Cc2cccc(Cl)c2)CCC(NC(=O)CCC(=O)NCCc2c[nH]c3ccccc23)CC1 (centres unmarked) [Example 99, N-[4-(3-chloro-benzyl)-4-dimethylamino-cyclohexyl]-N′-[2-(1H-indol-3-yl)-ethyl]-succinamicle]	94	99		
COCC(Cc1ccccc1)NC(=O)CCC(=O)NC1CCC(Cc2cccc(Cl)c2)(N(C)C)CC1 (centres unmarked) [Example 123, N-[4-(3-chloro-benzyl)-4-dimethylamino-cyclohexyl]-N′-(1-methoxymethyl-2-phenyl-ethyl)-succinamide]			92	99
Cc1cnc(C(=O)N2CCN(C(=O)CCC(=O)NC3CCC(Cc4cccc(Cl)c4)(N(C)C)CC3)CC2)cn1 (centres unmarked) [Example 33, N-[4-(3-chloro-benzyl)-4-dimethylamino-cyclohexyl]-4-[4-(5-methyl-pyrazin-2-carbonyl)-piperazin-1-yl]-4-oxo-butyramide]			95	99
CCOC(=O)N1CCN(C(=O)CCC(=O)NC2CCC(Cc3cccc(Cl)c3)(N(C)C)CC2)CC1 (centres unmarked) [Example 84, 4-{3-[4-(3-chloro-benzyl)-4-dimethylamino-cyclohexylcarbamoyl]-propionyl}-piperazin-1-carboxylic acid ethylester]			95	96
Cc1cccc(CC2(N(C)C)CCC(NC(=O)CCC(=O)N3CCC(C(=O)c4ccccc4)CC3)CC2)c1 (centres unmarked) [Example 67, 4-(4-benzoyl-piperidin-1-yl)-N-[4-dimethylamino-4-(3-methyl-benzyl)-cyclohexyl]-4-oxo-butyramide]			98	96
COc1ccc(F)c(CN2CCN(C(=O)CCCC(=O)NC3CCC(Cc4ccccc4)(N(C)C)CC3)CC2)c1 (centres unmarked) [Example 25, 5-[4-(2-fluoro-5-methoxy-benzyl)-piperazin-1-yl]-5-oxo-valeric acid (4-benzyl-4-dimethylamino-cyclohexyl)-amide]			97	95
Cc1ccc(CC2(N(C)C)CCC(NC(=O)CCC(=O)N3CCN(c4cccc(C)c4)CC3)CC2)cc1 (centres unmarked) [Example 6, N-[4-dimethylamino-4-(4-methyl-benzyl)-cyclohexyl]-4-oxo-4-(4-m-tolyl-piperazin-1-yl)-butyramide]			96	91
CN(C)C1(Cc2ccc(Cl)cc2)CCC(NC(=O)CCC(=O)NC2CCCC2)CC1 (centres unmarked) [Example 44, N-[4-(4-chloro-benzyl)-4-dimethylamino-cyclohexyl]-Nt-cyclopentyl-succinamide]	94	84		
CN(C)C1(Cc2ccc(Cl)cc2)CCC(NC(=O)CCC(=O)N2CCSCC2)CC1 (centres unmarked) [Example 13, N-[4-(4-chloro-benzyl)-4-dimethylamino-cyclohexyl]-4-oxo-4-thiomorpholin-4-yl-butyramide]			92	72
CN(C)C1(Cc2ccc(Cl)cc2)CCC(NC(=O)CCC(=O)NC2CCN(Cc3ccc(C(F)(F)F)cc3)C2)CC1 (centres unmarked) [Example 98, N-[4-(4-chloro-benzyl)-4-dimethylamino-cyclohexyl]-N′-[1-(4-trifluoromethyl-benzyl)-pyrrolidin-3-yl]-succinamide]			92	74
CN(C)C1(Cc2ccc(Cl)cc2)CCC(NC(=O)CCC(=O)NCc2cccc3ccccc23)CC1 (centres unmarked) [Example 34, N-[4-(4-chloro-benzyl)-4-dimethylamino-cyclohexyl]-N′-naphthalen-1-ylmethyl-succinamide]			97	87
COc1ccc(NC(=O)CCC(=O)NC2CCC(Cc3cccc(C)c3)(N(C)C)CC2)cc1 (centres unmarked) [Example 75, N-[4-dimethylamino-4-(3-methyl-benzyl)-cyclohexyl]-N′-(4-methoxy-phenyl)-succinamide]			97	99
CCOC(=O)CCNC(=O)CCC(=O)NC1CCC(Cc2ccc(C)cc2)(N(C)C)CC1 (centres unmarked) [Example 9, 3-{3-[4-dimethylamino-4-(4-methyl-benzyl)-cyclohexylcarbamoyl]-propionylamino}-propanoic acid ethylester]			93	91
CCOC(=O)C(C)NC(=O)CCC(=O)NC1CCC(Cc2cccc(Cl)c2)(N(C)C)CC1 (centres unmarked) [Example 30, 2-{3-[4-(3-chloro-benzyl)-4-dimethylamino-cyclohexylcarbamoyl]-propionylamino}-propanoic acid ethylester]			93	96
Cc1ccc(CC2(N(C)C)CCC(NC(=O)CCC(=O)N(C)CCNC(=O)C(F)(F)F)CC2)cc1 (centres unmarked) [Example 11, N-[4-dimethylamino-4-(4-methyl-benzyl)-cyclohexyl]-N′-methyl-N′-[2-(2,2,2-trifluoro-acetylamino)-ethyl]-succinamide]			92	77
Cc1ccc(CC2(N(C)C)CCC(NC(=O)CCC(=O)N3CC=CCC3)CC2)cc1 (centres unmarked) [Example 19, 4-(3,6-dihydro-2H-pyridin-1-yl)-N-[4-dimethylamino-4-(4-methyl-benzyl)-cyclohexyl]-4-oxo-butyramide]			93	74
C=CCOc1ccc(CN2CCN(C(=O)CCC(=O)NC3CCC(Cc4cccc(C)c4)(N(C)C)CC3)CC2)cc1 (centres unmarked) [Example 89, 4-[4-(4-allyloxy-benzyl)-piperazin-1-yl]-N-[4-dimethylamino-4-(3-methyl-benzyl)-cyclohexyl]-4-oxo-butyramide]			94	98
Cc1ccc(CC2(N(C)C)CCC(NC(=O)CCC(=O)N3CCC(CNC(=O)C(F)(F)F)CC3)CC2)cc1 (centres unmarked) [Example 51, N-[4-dimethylamino-4-(4-methyl-benzyl)-cyclohexyl]-4-oxo-4-{4-[(2,2,2-trifluoro-acetylamino)-methyl]-piperidin-1-yl}-butyramide]			92	77
C=CCN(C)C(=O)CCC(=O)NC1CCC(Cc2cccc(Cl)c2)(N(C)C)CC1 (centres unmarked) [Example 43, N-allyl-N′-[4-(3-chloro-benzyl)-4-dimethylamino-cyclohexyl]-N-methyl-succinamide]			98	96
CN(C)C1(Cc2ccc(Cl)cc2)CCC(NC(=O)CCC(=O)NCCc2c[nH]c3ccccc23)CC1 (centres unmarked) [Example 52, N-[4-(4-chloro-benzyl)-4-dimethylamino-cyclohexyl]-N′-[2-(1H-indol-3-yl)-ethyl]-succinamide]			96	88
Cc1cccc(CC2(N(C)C)CCC(NC(=O)CCC(=O)NC(C)c3ccc4ccccc4c3)CC2)c1 (centres unmarked) [Example 122, N-[4-dimethylamino-4-(3-methyl-benzyl)-cyclohexyl]-N′-(1-naphthalen-2-yl-ethyl)-succinamide]			93	102
CC(=O)c1ccc(N2CCN(C(=O)CCC(=O)NC3CCC(Cc4ccc(C)cc4)(N(C)C)CC3)CC2)cc1 (centres unmarked) [Example 27, 4-[4-(4-Acetyl-phenyl)-piperazin-1-yl]-N-[4-dimethylamino-4-(4-methyl-benzyl)-cyclohexyl]-4-oxo-butyramide]			95	92
